{
  "source": "BindingDB's records for doi:10.1021/jm049513x",
  "about": "(University of Bonn, 2005)",
  "experiment": "Percent inhibition of [3H]PSB-11 binding to adenosine A3 receptor at 10 uM",
  "note": "pKi: −log10 of the molar value.",
  "data": [
    {"smiles": "CCCn1c(=O)c2nc(C3CC(C)(C)N([O])C(C)(C)C3)[nH]c2n(CCC)c1=O", "values": [
      {"measurement": "pKi", "result": 7.35}
    ]}
  ]
}
